Experimental data taken from the NIST ThermoML archive (doi:10.1021/je0500734).
± gives the expanded uncertainty stated by the source.

Assays:
[1] = xn = mol fraction of the nth substance listed; details: 101.33 kPa, Liquid; for speed of sound: acoustic time of flight gauge
[2] = 101.33 kPa, Liquid; for speed of sound: acoustic time of flight gauge

CCCCCO [pentan-1-ol] + C[N+](=O)[O-]
[1], x2 = 0
Details	mass density [kg/m3]	speed of sound [m/s]	viscosity [mPa·s]
301.15 K	808.96 ± 2.2	1263.3 ± 2	3.113 ± 0.18
306.15 K	805.17 ± 2.2	1246.2 ± 2	2.686 ± 0.16

[2H]C([2H])([2H])[N+](=O)[O-] [deuteronitromethane] + CCCCCO
[1]
Details	mass density, 303.5 K [kg/m3]	mass density, 307.5 K [kg/m3]	viscosity, 303.5 K [mPa·s]	viscosity, 307.5 K [mPa·s]
x1 = 0.08	823.07 ± 2.1	819.05 ± 2.1	–	–
x1 = 0.103	–	–	2.46 ± 0.15	2.158 ± 0.13
x1 = 0.178	843.08 ± 1.9	838.92 ± 1.9	–	–
x1 = 0.206	–	–	2.16 ± 0.13	1.82 ± 0.11
x1 = 0.245	858.21 ± 1.8	853.8 ± 1.8	–	–
x1 = 0.302	–	–	1.796 ± 0.11	1.517 ± 0.093
x1 = 0.351	883.03 ± 1.6	878.4 ± 1.6	–	–
x1 = 0.401	896.26 ± 1.5	891.53 ± 1.5	–	–
x1 = 0.418	–	–	1.447 ± 0.089	1.251 ± 0.078
x1 = 0.49	922.6 ± 1.3	917.6 ± 1.3	–	–
x1 = 0.502	–	–	1.24 ± 0.078	1.077 ± 0.068
x1 = 0.598	–	–	1.069 ± 0.068	0.9159 ± 0.06
x1 = 0.615	966.2 ± 0.93	960.5 ± 0.97	1.033 ± 0.066	0.8939 ± 0.058
x1 = 0.644	–	–	1.026 ± 0.066	0.8578 ± 0.056
x1 = 0.669	988.3 ± 0.75	982.16 ± 0.8	–	–
x1 = 0.749	1024.62 ± 0.86	1018.46 ± 0.8	–	–
x1 = 0.758	–	–	0.7821 ± 0.052	0.7064 ± 0.048
x1 = 0.801	–	–	0.7859 ± 0.052	0.6878 ± 0.047
x1 = 0.86	1084.42 ± 1.3	1077.9 ± 1.3	–	–
x1 = 0.904	–	–	0.6496 ± 0.044	0.5971 ± 0.041
x1 = 0.959	1149.88 ± 1.9	1142.39 ± 1.8	–	–
x1 = 1	1180.03 ± 2.1	1172.08 ± 2	0.6274 ± 0.043	0.5819 ± 0.041

[2H]OCCCCC [pentan-1-ol-d] + C[N+](=O)[O-]
[1]
Details	mass density, 301.3 K [kg/m3]	mass density, 306.3 K [kg/m3]	viscosity, 301.3 K [mPa·s]	viscosity, 306.3 K [mPa·s]
x2 = 0	815.63 ± 2.1	811.88 ± 2.2	3.118 ± 0.18	2.685 ± 0.16
x2 = 0.07	825.73 ± 2	821.85 ± 2.1	–	–
x2 = 0.106	–	–	2.465 ± 0.14	2.186 ± 0.13
x2 = 0.154	839.37 ± 1.9	835.21 ± 2	–	–
x2 = 0.231	852.09 ± 1.8	847.81 ± 1.9	–	–
x2 = 0.245	–	–	1.937 ± 0.12	1.678 ± 0.1
x2 = 0.298	862.5 ± 1.8	858.1 ± 1.8	–	–
x2 = 0.385	879.49 ± 1.6	873.8 ± 1.7	–	–
x2 = 0.386	–	–	1.497 ± 0.091	1.319 ± 0.082
x2 = 0.503	906.93 ± 1.4	904.01 ± 1.4	–	–
x2 = 0.508	–	–	1.161 ± 0.073	1.066 ± 0.067
x2 = 0.551	920.64 ± 1.3	917.49 ± 1.3	–	–
x2 = 0.555	–	–	1.097 ± 0.069	0.9975 ± 0.064
x2 = 0.623	–	–	1.004 ± 0.064	0.8782 ± 0.057
x2 = 0.651	954.06 ± 1	950.15 ± 1.1	–	–
x2 = 0.679	–	–	0.9207 ± 0.06	0.7937 ± 0.053
x2 = 0.718	–	–	0.8419 ± 0.055	0.729 ± 0.049
x2 = 0.74	989.43 ± 0.74	983.56 ± 0.78	–	–
x2 = 0.749	–	–	0.7878 ± 0.052	0.6974 ± 0.047
x2 = 0.774	–	–	0.7451 ± 0.05	0.6734 ± 0.046
x2 = 0.847	1037.27 ± 0.95	1031.12 ± 0.9	–	–
x2 = 0.946	1090.5 ± 1.4	1083.88 ± 1.3	–	–

CCCCCO [pentan-1-ol]
[2]
Details	mass density [kg/m3]	speed of sound [m/s]	viscosity [mPa·s]
293.15 K	815.09 ± 1.7	1290.7 ± 2	–
295.15 K	812.74 ± 1.7	1282.1 ± 2	–
298.15 K	811.4 ± 1.7	1273.6 ± 2	–
300.15 K	809.72 ± 1.7	1266.7 ± 2	–
301.15 K	808.96 ± 2.2	1263.3 ± 2	3.113 ± 0.18
303.15 K	807.41 ± 1.7	1256.4 ± 2	–
303.5 K	807.33 ± 2.2	–	2.997 ± 0.17
305.15 K	805.78 ± 1.7	1249.4 ± 2	–
306.15 K	805.17 ± 2.2	1246.2 ± 2	2.686 ± 0.16
307.5 K	803.76 ± 2.2	–	2.57 ± 0.15
308.15 K	803.71 ± 1.8	1239.3 ± 2	–

[2], Capillary tube (Ostwald / Ubbelohde) method
Details	kinematic viscosity [m2/s]
293.15 K	4.96e-06 ± 5.9e-08
295.15 K	4.444e-06 ± 3.7e-08
298.15 K	4.223e-06 ± 3e-08
300.15 K	3.942e-06 ± 3.2e-08
303.15 K	3.635e-06 ± 2.8e-08
305.15 K	3.45e-06 ± 2.8e-08
308.15 K	3.129e-06 ± 2.8e-08

C[N+](=O)[O-] [nitromethane]
[2]
Details	kinematic viscosity [m2/s]	mass density [kg/m3]	speed of sound [m/s]	viscosity [mPa·s]
293.15 K	6.01e-07 ± 1.6e-08	1137.21 ± 1.4	1337.6 ± 2	–
295.15 K	5.77e-07 ± 1.6e-08	1133.14 ± 1.4	1329.5 ± 2	–
298.15 K	5.62e-07 ± 1.5e-08	1130.42 ± 1.3	1317.4 ± 2	–
300.15 K	5.47e-07 ± 1.5e-08	1127.55 ± 1.3	1309.4 ± 2	–
301.15 K	–	1126.24 ± 1.7	1305.3 ± 2	0.6091 ± 0.042
301.3 K	–	1126.04 ± 1.7	–	0.6074 ± 0.042
303.15 K	5.25e-07 ± 1.5e-08	1123.49 ± 1.3	1297.3 ± 2	–
305.15 K	5.1e-07 ± 1.4e-08	1120.82 ± 1.3	1289.2 ± 2	–
306.15 K	–	1119.36 ± 1.6	1285.2 ± 2	0.5636 ± 0.04
306.3 K	–	1119.15 ± 1.6	–	0.5623 ± 0.039
308.15 K	4.89e-07 ± 1.4e-08	1116.54 ± 1.2	1277.1 ± 2	–
